Tests used:
Conditions in all cases: Table 35
MLKL (full length) = MLKL (full length) (Homo sapiens (Human), UniProt Q8NB16); test: KINOMEscan binding assay, MLKL (full length)
Experimental: (§1) Kinase assays. For most assays, kinase-tagged T7 phage strains were grown in parallel in 24-well blocks in an E. coli host derived from the BL21 strain. E. coli were grown to log-phase and infected with T7 phage from a frozen stock (multiplicity of infection=0.4) and incubated with shaking at 32° C. until lysis (90-150 minutes).
(§2) The Hill Slope was set to −1.

RIP3 = RIP3 (Homo sapiens (Human), UniProt Q9Y572); test: KINOMEscan binding assay, RIP3
Chain of RIP3 (Q9Y572 whole entry): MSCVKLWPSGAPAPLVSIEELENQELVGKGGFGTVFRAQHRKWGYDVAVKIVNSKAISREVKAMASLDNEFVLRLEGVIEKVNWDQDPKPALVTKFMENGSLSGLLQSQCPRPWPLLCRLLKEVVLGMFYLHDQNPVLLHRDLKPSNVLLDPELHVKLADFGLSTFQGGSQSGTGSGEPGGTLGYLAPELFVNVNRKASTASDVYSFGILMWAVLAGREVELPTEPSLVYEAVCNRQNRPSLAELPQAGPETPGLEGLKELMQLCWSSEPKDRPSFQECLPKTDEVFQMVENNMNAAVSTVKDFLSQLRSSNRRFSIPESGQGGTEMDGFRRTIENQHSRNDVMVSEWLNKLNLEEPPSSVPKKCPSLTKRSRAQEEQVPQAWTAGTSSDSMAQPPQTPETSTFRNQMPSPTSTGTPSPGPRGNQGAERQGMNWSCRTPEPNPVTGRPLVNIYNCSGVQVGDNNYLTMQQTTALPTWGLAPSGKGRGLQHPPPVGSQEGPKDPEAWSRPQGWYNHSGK
Experimental: as §1, §2

RIP1 = RIP1 (Homo sapiens (Human), UniProt Q13546); test: KINOMEscan binding assay, RIP1
Chain of RIP1 (Q13546 whole entry): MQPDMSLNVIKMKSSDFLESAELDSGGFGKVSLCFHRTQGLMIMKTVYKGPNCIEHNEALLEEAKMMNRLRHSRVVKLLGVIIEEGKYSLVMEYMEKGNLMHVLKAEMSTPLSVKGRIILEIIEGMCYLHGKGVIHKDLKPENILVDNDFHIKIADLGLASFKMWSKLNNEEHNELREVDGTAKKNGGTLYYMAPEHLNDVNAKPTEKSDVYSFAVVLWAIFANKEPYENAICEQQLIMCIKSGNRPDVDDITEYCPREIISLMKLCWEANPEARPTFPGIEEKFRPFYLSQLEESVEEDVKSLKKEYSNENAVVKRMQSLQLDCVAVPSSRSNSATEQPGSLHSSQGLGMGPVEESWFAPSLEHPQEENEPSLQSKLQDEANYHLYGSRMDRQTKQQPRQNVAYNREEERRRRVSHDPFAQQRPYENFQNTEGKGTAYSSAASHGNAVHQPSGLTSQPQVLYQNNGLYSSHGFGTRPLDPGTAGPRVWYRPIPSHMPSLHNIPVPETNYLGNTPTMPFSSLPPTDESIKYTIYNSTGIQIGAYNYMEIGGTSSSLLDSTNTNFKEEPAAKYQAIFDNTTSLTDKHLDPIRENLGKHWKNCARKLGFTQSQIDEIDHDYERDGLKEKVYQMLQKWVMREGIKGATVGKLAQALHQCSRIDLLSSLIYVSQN

Chain of MLKL (full length) (Q8NB16 whole entry): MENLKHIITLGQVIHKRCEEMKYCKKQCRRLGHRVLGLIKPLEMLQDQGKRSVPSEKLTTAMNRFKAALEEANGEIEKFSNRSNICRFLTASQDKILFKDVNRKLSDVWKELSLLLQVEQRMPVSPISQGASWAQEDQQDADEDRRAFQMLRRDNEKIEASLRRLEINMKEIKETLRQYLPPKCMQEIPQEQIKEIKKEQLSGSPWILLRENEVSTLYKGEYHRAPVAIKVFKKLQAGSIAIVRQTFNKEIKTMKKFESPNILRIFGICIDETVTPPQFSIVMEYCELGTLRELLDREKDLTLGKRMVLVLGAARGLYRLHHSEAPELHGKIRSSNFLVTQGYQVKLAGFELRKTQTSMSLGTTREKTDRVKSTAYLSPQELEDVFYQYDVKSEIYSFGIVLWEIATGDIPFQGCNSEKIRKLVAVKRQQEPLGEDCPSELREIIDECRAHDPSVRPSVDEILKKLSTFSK

SMILES | Kd (MLKL (full length)) [µM] | Kd (RIP3) [µM] | Kd (RIP1) [µM]
NC(=O)c1c(-c2ccc(NS(=O)(=O)C(F)F)c(OCc3ccc(F)cc3)c2)n[nH]c1Nc1cnccn1 [Compound 202, 3-(4-((difluoromethyl)sulfonamido)-3-((4-fluorobenzyl)oxy)phenyl)-5-(pyrazin-2-ylamino)-1H-pyrazole-4-carboxamide] | < 0.01 | > 30 | > 30
CCS(=O)(=O)Nc1ccc(-c2n[nH]c(Nc3cnccn3)c2C(N)=O)cc1Oc1cccc(F)c1 [Compound 204, 3-(4-(ethylsulfonamido)-3-(3-fluorophenoxy)phenyl)-5-(pyrazin-2-ylamino)-1H-pyrazole-4-carboxamide] | < 0.01 | > 30 | > 30
NC(=O)c1c(-c2ccc(NS(=O)(=O)C(F)(F)F)cc2)n[nH]c1Nc1cccc(C(F)(F)F)n1 [Compound 205] | < 0.01 | > 30 | > 30
CCS(=O)(=O)Nc1ccc(-c2n[nH]c(Nc3cnccn3)c2C(N)=O)cc1OCCc1ccccc1Cl [Compound 206, 3-(3-(2-chlorophenethoxy)-4-(ethylsulfonamido)phenyl)-5-(pyrazin-2-ylamino)-1H-pyrazole-4-carboxamide] | < 0.01 | > 30 | > 30
CCS(=O)(=O)Nc1ccc(-c2n[nH]c(Nc3cnccn3)c2C(N)=O)cc1OCCc1ccccc1 [Compound 210, 3-(4-(ethylsulfonamido)-3-phenethoxyphenyl)-5-(pyrazin-2-ylamino)-1H-pyrazole-4-carboxamide] | < 0.01 | > 30 | > 30
CCS(=O)(=O)Nc1ccc(-c2n[nH]c(Nc3cnccn3)c2C(N)=O)cc1OCCc1ccccc1F [Compound 211, 3-(4-(ethylsulfonamido)-3-(2-fluorophenethoxy)phenyl)-5-(pyrazin-2-ylamino)-1H-pyrazole-4-carboxamide] | < 0.01 | > 30 | > 30
CCS(=O)(=O)Nc1ccc(-c2n[nH]c(Nc3cc(C(F)(F)F)ccn3)c2C(N)=O)cc1OCc1ccc(F)cc1 [Compound 213] | 0.01 to 1 | > 30 | > 30
NC(=O)c1c(-c2ccc(NS(=O)(=O)C(F)F)c(OCc3ccc(F)cc3)c2)n[nH]c1Nc1cccc(C(F)(F)F)n1 [Compound 217] | < 0.01 | > 30 | > 30
CCS(=O)(=O)Nc1ccc(-c2n[nH]c(Nc3cnccn3)c2C(N)=O)cc1OCCc1cccc(F)c1 [Compound 219, 3-(4-(ethylsulfonamido)-3-(3-fluorophenethoxy)phenyl)-5-(pyrazin-2-ylamino)-1H-pyrazole-4-carboxamide] | < 0.01 | > 30 | > 30
COCCOc1cc(Nc2[nH]nc(-c3ccc(NS(=O)(=O)N(C)C)cc3)c2C(N)=O)ccn1 [Compound 221, 3-(4-((N,N-dimethylsulfamoyl)amino)phenyl)-5-((2-(2-methoxyethoxy)pyridin-4-yl)amino)-1H-pyrazole-4-carboxamide] | < 0.01 | > 30 | > 30
C[C@H](Oc1cc(-c2n[nH]c(Nc3cnccn3)c2C(N)=O)ccc1NS(=O)(=O)C(F)F)c1ccc(F)cc1 [Compound 223, 3-[4-(difluoromethanesulfonamido)-3-[(1S)-1-(4-fluorophenyl)ethoxy]phenyl]-5-[(pyrazin-2-yl)amino]-1H-pyrazole-4-carboxamide] | < 0.01 | > 30 | > 30
NC(=O)c1c(-c2ccc(NS(=O)(=O)CC(F)(F)F)c(OCc3ccc(F)c(Cl)c3)c2)n[nH]c1Nc1cnccn1 [Compound 225, 3-{3-[(3-chloro-4-fluorophenyl)methoxy]-4-(2,2,2-trifluoroethane-sulfonamido)phenyl}-5-[(pyrazin-2-yl)amino]-1H-pyrazole-4-carboxamide] | < 0.01 | > 30 | > 30
NC(=O)c1c(-c2ccc(NS(=O)(=O)C(F)F)c(OCc3ccc(F)c(F)c3)c2)n[nH]c1Nc1ccccn1 [Compound 226] | < 0.01 | > 30 | > 30

— US20250074891A1 (Anaxis Pharma Pty Ltd., priority 2021, published 2025)
